Consider eleven compounds from ChEMBL document CHEMBL2407070, “Bioactive compounds from the roots of Strophioblachia fimbricalyx” (J Nat Prod, 2013).

One test has as its system Plasmodium falciparum. As to the kind of experiment: Antiplasmodial activity against Plasmodium falciparum K1 after 42 hrs by microdilution method. It counts as functional, organism-based. The following applies: K1, 42 h.
In a further test the test system is KB. The test is described as follows: Cytotoxicity against human KB cells by SRB assay. It counts as functional, cell-based.
A further test deals with MCF7. As to the kind of experiment: cells. The following applies: Homo sapiens.
For test [1], the system named is NCI-H187. As to the kind of experiment: Cytotoxicity against human NCI-H187 cells by SRB assay. It counts as functional, cell-based.
Another test deals with Vero. The test is described as follows: Cytotoxicity against african green monkey Vero cells by SRB assay. It counts as functional, cell-based. The following applies: Chlorocebus sabaeus.
Test [2] concerns NCI-H187. As to the kind of experiment: Cytotoxicity against human NCI-H187 cells. It counts as functional, cell-based.

pIC50: −log10 of the molar value.

Description for MCF7: Cytotoxicity against human MCF7 cells by SRB assay

In the case of `COc1cc2c3c(cc(O)c2cc1C)C(C)(C)C(=O)[C@]1(OC)Oc2c(cc4c(cc(OC)c5cc(C)c(OC)cc54)c2C)O[C@H]31`, the pIC50 in the test with Plasmodium falciparum, in the test on KB, with MCF7 and with NCI-H187 [1] was below 5.00 each time.

In the case of `COc1cc2c3c(cc(O)c2cc1C)C(C)(C)C(=O)[C@@]1(OC)Oc2c(cc4c(cc(OC)c5cc(C)c(OC)cc54)c2C)O[C@H]31`, the pIC50 in the test with Plasmodium falciparum, in the test with KB, in the test on MCF7 and in the test on NCI-H187 [1] was below 5.00 each time.

As for `COc1cc2c3c(cc(OC)c2cc1C)C(C)(O)OC3=O` (stereo not given), the pIC50 with Plasmodium falciparum, in the test on KB, in the test with MCF7 and in the test on NCI-H187 [1] was below 5.00 in each case.

With `COc1cc2c3c(cc(O)c2cc1C)C(C)(C)C(=O)OC3=O`, the pIC50 was below 5.00 with Vero; 5.41 in the test with Plasmodium falciparum; below 5.00 in the test with KB; below 5.00 with MCF7; 5.24 in the test on NCI-H187 [1].

On to `COC1=Cc2c(cc(OC3=C4C(=CC(=O)C4(C)C)c4cc(OC)c(C)cc4C3=O)c3cc(C)c(OC)cc23)C(C)(C)C1=O`, for which the pIC50 is below 5.00 in the test on Vero; 5.54 in the test with Plasmodium falciparum; below 5.00 in the test with KB; below 5.00 in the test with MCF7; 5.08 in the test with NCI-H187 [2].

For the compound `COC1=C2C(=CC(=O)C(O)=C2C)c2cc(OC)c(C)cc2C1=O`, the pIC50 was below 5.00 with Vero; 7.71 in the test with Plasmodium falciparum; below 5.00 in the test with KB; below 5.00 with MCF7; below 5.00 with NCI-H187 [1].

As to `O[C@@H](c1cc(C(F)(F)F)nc2c(C(F)(F)F)cccc12)[C@H]1CCCCN1` (relative stereo) [(S,R)-MEFLOQUINE], the pIC50 in the test on Plasmodium falciparum was 7.51.

In turn, `C[C@H]1[C@@H](O)O[C@@H]2O[C@@]3(C)CC[C@H]4[C@H](C)CC[C@@H]1[C@@]24OO3` [ARTENIMOL] showed a pIC50 with Plasmodium falciparum of 8.60.

In the case of `COc1cccc2c1C(=O)c1c(O)c3c(c(O)c1C2=O)C[C@@](O)(C(=O)CO)C[C@@H]3O[C@H]1C[C@H](N)[C@H](O)[C@H](C)O1` [DOXORUBICIN], the pIC50 is 6.25 in the test on KB and 6.85 with NCI-H187 [1].

Take `Cc1c2ccncc2c(C)c2c1[nH]c1ccccc12` [ELLIPTECINE]: the pIC50 in the test on Vero was 5.92; in the test with KB it was 5.92; with NCI-H187 [1], 5.94.

In the case of `CC/C(=C(\c1ccccc1)c1ccc(OCCN(C)C)cc1)c1ccccc1` [TAMOXIFEN], the pIC50 with MCF7 was 5.28.
